≈ marks a conversion by molar mass, not a printed value.
What was measured:
Escherichia coli [1] = assay: Antibacterial activity against Escherichia coli; assay type: functional
Enterococcus faecalis [2] = assay: Antibacterial activity against Enterococcus faecalis; assay type: functional
Staphylococcus aureus [3] = assay: Antibacterial activity against Staphylococcus aureus; assay type: functional
Pichia kudriavzevii = assay: Antifungal activity against Candida krusei ATCC 6258; assay type: functional
Pseudomonas aeruginosa = assay: Antibacterial activity against Pseudomonas aeruginosa ATCC 10145; assay type: functional
Bacillus subtilis [4] = assay: Antibacterial activity against Bacillus subtilis ATCC 6633; assay type: functional
Escherichia coli [5] = assay: Antibacterial activity against Escherichia coli ATCC 35218; assay type: functional
Staphylococcus aureus [6] = assay: Antibacterial activity against Staphylococcus aureus ATCC 25923; assay type: functional
Mycobacterium avium = assay: Antitubercular activity against Mycobacterium avium ATCC 15769; assay type: functional
[7] = test system: Mycobacterium tuberculosis; assay: Antitubercular activity against Mycobacterium tuberculosis H37Rv ATCC 27294; assay type: functional
Acinetobacter baumannii = assay: Antibacterial activity against Acinetobacter baumannii i RSKK 02026; assay type: functional
Klebsiella pneumoniae = assay: Antibacterial activity against Klebsiella pneumoniae RSKK 574; assay type: functional
Proteus mirabilis = assay: Antibacterial activity against Proteus mirabilis ATCC 7002; assay type: functional
Enterococcus faecalis [8] = assay: Antibacterial activity against Enterococcus faecalis ATCC 29212; assay type: functional
Saccharomyces cerevisiae = assay: Antifungal activity against Saccharomyces cerevisiae; assay type: functional
Aspergillus niger = assay: Antifungal activity against Aspergillus niger; assay type: functional
Candida albicans = assay: Antifungal activity against Candida albicans ATCC10231; assay type: functional
Candida tropicalis = assay: Antifungal activity against Candida tropicalis ATCC 13803; assay type: functional
Candida parapsilosis = assay: Antifungal activity against […]; assay type: functional; conditions: Lodderomyces parapsilosis
[9] = Antiinflammatory activity in macrophages assessed as reduction in LPS-induced NO production; assay type: functional, cell-based; conditions: Macrophage
Staphylococcus aureus [10] = assay: Antibacterial activity against Staphylococcus aureus assessed as zone of inhibition; assay type: functional
Bacillus subtilis [11] = assay: Antibacterial activity against Bacillus subtilis assessed as zone of inhibition; assay type: functional
[12] = target: Amine oxidase [flavin-containing] B (Homo sapiens, UniProt P27338); assay: Inhibition of human MAO-B
DU-145 = assay: Cytotoxicity against human DU-145 cells; assay type: functional, cell-based
MCF7 = assay: Cytotoxicity against human MCF7 cells; assay type: functional, cell-based
A549 = assay: Cytotoxicity against human A549 cells; assay type: functional, cell-based
HeLa = assay: Cytotoxicity against human HeLa cells; assay type: functional, cell-based

Chain of Amine oxidase [flavin-containing] B (P27338 whole entry): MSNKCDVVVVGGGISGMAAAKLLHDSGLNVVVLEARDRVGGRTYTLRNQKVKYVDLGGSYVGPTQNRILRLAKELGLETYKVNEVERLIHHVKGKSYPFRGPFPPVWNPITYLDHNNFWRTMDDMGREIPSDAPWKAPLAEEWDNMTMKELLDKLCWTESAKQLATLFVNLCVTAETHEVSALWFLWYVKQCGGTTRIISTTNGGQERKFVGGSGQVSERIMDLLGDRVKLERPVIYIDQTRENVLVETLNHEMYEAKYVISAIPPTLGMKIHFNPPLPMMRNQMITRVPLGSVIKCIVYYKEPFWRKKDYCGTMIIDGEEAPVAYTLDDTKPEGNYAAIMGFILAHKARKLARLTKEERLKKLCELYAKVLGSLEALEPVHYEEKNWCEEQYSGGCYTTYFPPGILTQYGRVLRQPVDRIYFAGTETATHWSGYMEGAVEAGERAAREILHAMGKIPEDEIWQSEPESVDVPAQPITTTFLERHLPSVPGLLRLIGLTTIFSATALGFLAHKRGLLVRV

For `Cc1cc(=O)c(O)c(C(=O)Nc2ccc3c(C)cc(=O)oc3c2)o1`, the MIC (Escherichia coli [1]) was 8 µg/mL (≈ 24.4 µM), the MIC (Enterococcus faecalis [2]) was 8 µg/mL (≈ 24.4 µM) and the MIC (Staphylococcus aureus [3]) was 8 µg/mL (≈ 24.4 µM). The MIC (Pichia kudriavzevii) was 4 µg/mL (≈ 12.2 µM).

Molecule `O=c1cc(CCl)oc(CN2CCN(Cc3ccc(C(F)(F)F)cc3)CC2)c1O` has an MIC (Pseudomonas aeruginosa) of 8 µg/mL (≈ 19.2 µM), an MIC (Bacillus subtilis [4]) of 4 µg/mL (≈ 9.6 µM) and an MIC (Escherichia coli [5]) of 8 µg/mL (≈ 19.2 µM). It also gave an MIC (Staphylococcus aureus [6]) of 4 µg/mL (≈ 9.6 µM), an MIC (Mycobacterium avium) of 4 µg/mL (≈ 9.6 µM) and an MIC [7] of 4 µg/mL (≈ 9.6 µM). For the same molecule, the MIC (Acinetobacter baumannii) was 8 µg/mL (≈ 19.2 µM), the MIC (Klebsiella pneumoniae) was 8 µg/mL (≈ 19.2 µM) and the MIC (Proteus mirabilis) was 8 µg/mL (≈ 19.2 µM). It also gave an MIC (Enterococcus faecalis [8]) of 4 µg/mL (≈ 9.6 µM).

With `CO[C@@H]1O[C@H](COCc2cc(=O)c(O)co2)[C@@H](C)[C@H](OCc2cc(=O)c(O)co2)[C@H]1N` the MIC (Escherichia coli [1]) was 1040 µg/mL (≈ 2370 µM), the MIC (Saccharomyces cerevisiae) was 1040 µg/mL (≈ 2370 µM) and the MIC (Staphylococcus aureus [3]) was 1040 µg/mL (≈ 2370 µM). It also gave an MIC (Aspergillus niger) of 1040 µg/mL (≈ 2370 µM).

In the case of `O=c1cc(CCl)oc(CN2CCN(c3ccccc3)CC2)c1O`, the MIC (Pseudomonas aeruginosa) is reported as 8 µg/mL (≈ 23.9 µM), the MIC (Escherichia coli [5]) is reported as 8 µg/mL (≈ 23.9 µM) and the MIC (Candida albicans) is reported as 8 µg/mL (≈ 23.9 µM). The MIC (Mycobacterium avium) was 4 µg/mL (≈ 11.9 µM), the MIC [7] was 4 µg/mL (≈ 11.9 µM) and the MIC (Pichia kudriavzevii) was 8 µg/mL (≈ 23.9 µM). For the same molecule, the MIC (Acinetobacter baumannii) was 8 µg/mL (≈ 23.9 µM), the MIC (Klebsiella pneumoniae) was 8 µg/mL (≈ 23.9 µM) and the MIC (Proteus mirabilis) was 8 µg/mL (≈ 23.9 µM). The MIC (Candida tropicalis) was 8 µg/mL (≈ 23.9 µM) and the MIC (Candida parapsilosis) was 8 µg/mL (≈ 23.9 µM).

`O=c1cc(CSc2ccc(Cl)cc2)occ1O` showed an IC50 [9] of 23.9 µM.

With `N#CC(C(=O)c1c[nH]c2ccccc12)C(c1ccc(Cl)cc1)c1oc(CO)cc(=O)c1O` (configuration not stated) the “inhibition zone (IZ)” value (Staphylococcus aureus [10]) was 22 mm and the “inhibition zone (IZ)” value (Bacillus subtilis [11]) was 19.5 mm.

In the case of `CCc1c(O)c(=O)cc(C)n1CCCn1cc(COc2ccc3ccc(=O)oc3c2)nn1`, the IC50 [12] is reported as 0.68 µM.

Molecule `CC(C)(C)[Si](C)(C)OCc1cc(=O)c(O)c(C(C[N+](=O)[O-])c2ccc(Cl)cc2)o1` (configuration not stated) has an IC50 (DU-145) of 16 µM, an IC50 (MCF7) of 18 µM and an IC50 (A549) of 18 µM. The IC50 (HeLa) was 11 µM.

Reference: ChEMBL document CHEMBL5233273, “An overview of hydroxypyranone and hydroxypyridinone as privileged scaffolds for novel drug discovery” (Eur J Med Chem, 2021)
